Source: PubChem BioAssay (NCI)
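Here, GI50 denotes the concentration required for 50% inhibition of growth. TGI denotes the concentration required for complete inhibition of growth.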

How the values were obtained:
Test in all cases: NCI tumour cell line growth inhibition, 384-well format
HOP-92 NSCLC = test system: HOP-92 NSCLC
U251 glioblastoma = test system: U251 glioblastoma
MDA-MB-435 melanoma = test system: MDA-MB-435 melanoma
K-562 leukemia = test system: K-562 leukemia
IGROV1 ovarian = test system: IGROV1 ovarian
SK-MEL-2 melanoma = test system: SK-MEL-2 melanoma
MCF7 breast = test system: MCF7 breast
BT-549 breast = test system: BT-549 breast
UACC-62 melanoma = test system: UACC-62 melanoma
NCI-H460 NSCLC = test system: NCI-H460 NSCLC
CCRF-CEM leukemia = test system: CCRF-CEM leukemia
SF-539 CNS = test system: SF-539 CNS
MDA-MB-231 breast = test system: MDA-MB-231 breast
TK-10 renal = test system: TK-10 renal
NCI-H23 lung = test system: NCI-H23 lung
PC-3 prostate = test system: PC-3 prostate
SK-MEL-28 melanoma = test system: SK-MEL-28 melanoma
786-0 renal = test system: 786-0 renal
ACHN renal = test system: ACHN renal
SN12C renal = test system: SN12C renal
NCI/ADR-RES ovarian = test system: NCI/ADR-RES ovarian
HS 578T breast = test system: HS 578T breast
OVCAR-5 ovarian = test system: OVCAR-5 ovarian
A498 renal = test system: A498 renal
HCT-116 colon = test system: HCT-116 colon
A549 NSCLC = test system: A549 NSCLC
MDA-MB-468 breast = test system: MDA-MB-468 breast
SNB-75 CNS = test system: SNB-75 CNS
SK-OV-3 ovarian = test system: SK-OV-3 ovarian
M14 melanoma = test system: M14 melanoma
NCI-H322M lung = test system: NCI-H322M lung
SF-295 CNS = test system: SF-295 CNS
OVCAR-4 ovarian = test system: OVCAR-4 ovarian
RXF 393 renal = test system: RXF 393 renal
NCI-H226 lung = test system: NCI-H226 lung
OVCAR-3 ovarian = test system: OVCAR-3 ovarian
SK-MEL-5 melanoma = test system: SK-MEL-5 melanoma
HL-60(TB) leukemia = test system: HL-60(TB) leukemia
HOP-62 NSCLC = test system: HOP-62 NSCLC
SF-268 CNS = test system: SF-268 CNS
SNB-19 CNS = test system: SNB-19 CNS
EKVX NSCLC = test system: EKVX NSCLC
DU-145 prostate = test system: DU-145 prostate
COLO 205 colon = test system: COLO 205 colon
T-47D breast = test system: T-47D breast
KM12 colon = test system: KM12 colon
HCT-15 colon = test system: HCT-15 colon

SMILES: C[C@@H](c1ccc2nccn2c1)n1nnc2ncc(-c3cnn(C)c3)nc21
- GI50 (HOP-92 NSCLC): > 100 µM
- TGI (HOP-92 NSCLC): > 100 µM
- GI50 (U251 glioblastoma): > 100 µM
- TGI (U251 glioblastoma): > 100 µM
- GI50 (MDA-MB-435 melanoma): > 100 µM
- TGI (MDA-MB-435 melanoma): > 100 µM
- GI50 (K-562 leukemia): 44.8 µM
- TGI (K-562 leukemia): > 100 µM
- GI50 (IGROV1 ovarian): > 100 µM
- TGI (IGROV1 ovarian): > 100 µM
- GI50 (SK-MEL-2 melanoma): > 100 µM
- TGI (SK-MEL-2 melanoma): > 100 µM
- GI50 (MCF7 breast): > 100 µM
- TGI (MCF7 breast): > 100 µM
- GI50 (BT-549 breast): > 100 µM
- TGI (BT-549 breast): > 100 µM
- GI50 (UACC-62 melanoma): > 100 µM
- TGI (UACC-62 melanoma): > 100 µM
- GI50 (NCI-H460 NSCLC): > 100 µM
- TGI (NCI-H460 NSCLC): > 100 µM
- GI50 (CCRF-CEM leukemia): > 71.6 µM
- TGI (CCRF-CEM leukemia): > 100 µM
- GI50 (SF-539 CNS): > 100 µM
- TGI (SF-539 CNS): > 100 µM
- GI50 (MDA-MB-231 breast): > 100 µM
- TGI (MDA-MB-231 breast): > 100 µM
- GI50 (TK-10 renal): > 100 µM
- TGI (TK-10 renal): > 100 µM
- GI50 (NCI-H23 lung): 20.6 µM
- TGI (NCI-H23 lung): > 100 µM
- GI50 (PC-3 prostate): > 100 µM
- TGI (PC-3 prostate): > 100 µM
- GI50 (SK-MEL-28 melanoma): > 100 µM
- TGI (SK-MEL-28 melanoma): > 100 µM
- GI50 ([…]-0 renal): > 100 µM
- TGI (786-0 renal): > 100 µM
- GI50 (ACHN renal): > 100 µM
- TGI (ACHN renal): > 100 µM
- GI50 (SN12C renal): > 63 µM
- TGI (SN12C renal): > 100 µM
- GI50 (NCI/ADR-RES ovarian): > 100 µM
- TGI (NCI/ADR-RES ovarian): > 100 µM
- GI50 (HS 578T breast): > 100 µM
- TGI (HS 578T breast): > 100 µM
- GI50 (OVCAR-5 ovarian): > 100 µM
- TGI (OVCAR-5 ovarian): > 100 µM
- GI50 (A498 renal): > 100 µM
- TGI (A498 renal): > 100 µM
- GI50 (HCT-116 colon): > 100 µM
- TGI (HCT-116 colon): > 100 µM
- GI50 (A549 NSCLC): > 100 µM
- TGI (A549 NSCLC): > 100 µM
- GI50 (MDA-MB-468 breast): 22 µM
- TGI (MDA-MB-468 breast): > 100 µM
- GI50 (SNB-75 CNS): > 76.8 µM
- TGI (SNB-75 CNS): > 100 µM
- GI50 (SK-OV-3 ovarian): > 100 µM
- TGI (SK-OV-3 ovarian): > 100 µM
- GI50 (M14 melanoma): > 100 µM
- TGI (M14 melanoma): > 100 µM
- GI50 (NCI-H322M lung): > 100 µM
- TGI (NCI-H322M lung): > 100 µM
- GI50 (SF-295 CNS): 25.2 µM
- TGI (SF-295 CNS): > 100 µM
- GI50 (OVCAR-4 ovarian): > 94.4 µM
- TGI (OVCAR-4 ovarian): > 100 µM
- GI50 (RXF 393 renal): > 75.4 µM
- TGI (RXF 393 renal): > 100 µM
- GI50 (NCI-H226 lung): > 100 µM
- TGI (NCI-H226 lung): > 100 µM
- GI50 (OVCAR-3 ovarian): > 100 µM
- TGI (OVCAR-3 ovarian): > 100 µM
- GI50 (SK-MEL-5 melanoma): > 92.7 µM
- TGI (SK-MEL-5 melanoma): > 100 µM
- GI50 (HL-60(TB) leukemia): > 92.2 µM
- TGI (HL-60(TB) leukemia): > 100 µM
- GI50 (HOP-62 NSCLC): > 92.4 µM
- TGI (HOP-62 NSCLC): > 100 µM
- GI50 (SF-268 CNS): > 100 µM
- TGI (SF-268 CNS): > 100 µM
- GI50 (SNB-19 CNS): > 100 µM
- TGI (SNB-19 CNS): > 100 µM
- GI50 (EKVX NSCLC): > 100 µM
- TGI (EKVX NSCLC): > 100 µM
- GI50 (DU-145 prostate): > 100 µM
- TGI (DU-145 prostate): > 100 µM
- GI50 (COLO 205 colon): > 100 µM
- TGI (COLO 205 colon): > 100 µM
- GI50 (T-47D breast): > 61.2 µM
- TGI (T-47D breast): > 100 µM
- GI50 (KM12 colon): 35 µM
- TGI (KM12 colon): > 100 µM
- GI50 (HCT-15 colon): > 100 µM
- TGI (HCT-15 colon): > 100 µM
